≈ marks a conversion by molar mass, not a printed value.
Assay: solubility of p-methoxybenzoic acid in water
Type: physicochemical
Text: p-Methoxybenzoic acid can be obtained under the trade name of DERMOSOFT® 688 from Dr. Straetmans GmbH in a cosmetical grade. The solubility of p-methoxybenzoic acid in water is approximately […]. For use in a cosmetic formulation the product is usually brought into solution with sodium hydroxide or potassium hydroxide in a small amount of water at warm temperatures and worked into an aqueous phase. To evolve the spectrum of effects of p-methoxybenzoic acid completely, afterwards the formula should be re-acidified to a pH-value of 5.5. […] This may show, that the initial homogenous solutions are merely meta-stable systems.

COc1ccc(C(=O)O)cc1 [p-methoxybenzoic acid]
solubility: ~5000 µg/mL (≈ 32.9 mM)
